“Also recorded” adds a separate entry of the source.
Experiments:
human myoblasts = assay: ROS in human myoblasts treated with kynurenine; format: cell-based
Description: (§1) This example investigated the relationship between kynurenine, a circulating tryptophan metabolite which increases with age, and markers of muscle oxidative stress. C2C12 myoblasts were treated with kynurenine in a dose-dependent manner (0, 1, 10 μM) and reactive oxygen species (“ROS”) was measured using an Amplex red assay. Human myoblasts were also treated with kynurenine (100 μM) and ROS was measured. Female C57BL/6 mice 6 months of age were treated with kynurenine (10 mg/kg BW) or with saline (vehicle control) for 4 weeks. Muscle mass and fiber size were measured from the quadriceps femoris ex vivo, and ROS was measured from paraffin-embedded muscle sections using immunostaining for 4HNE.

C2C12 myoblasts = assay: ROS by Amplex red assay in C2C12 myoblasts treated with kynurenine; format: cell-based
Description: as §1

quadriceps femoris [1] = assay: Muscle mass and fiber size of quadriceps femoris ex vivo, mice treated with kynurenine for 4 weeks; format: in vivo, C57BL/6 mice; details: young mice, kynurenine 10 mg/kg BW
Description: as §1

quadriceps femoris [2] = assay: Muscle ROS by 4HNE immunostaining of paraffin-embedded muscle sections, mice treated with kynurenine; format: in vivo, C57BL/6 mice; details: young mice, kynurenine 10 mg/kg BW, 4 weeks, P<0.05
Description: as §1

quadriceps muscle = assay: Proteomic analysis of quadriceps muscle of aged mice treated with 1-methyl-D-tryptophan (Table 1, TOPPGENE enrichment); format: in vivo
Description: (§2) Female mice 22 months of age were obtained from the National Institute on Aging and treated with saline (vehicle) or 1-methyl-D-tryptophan (1-MT, Sigma, 452483, lot#MKBZ1441V) at a low dose (10 mg/kg BW) or at a high dose (100 mg/kg BW). Mice were treated daily for 4 weeks. Treatments were administered i.p. with an injection volume of 0.2 ml following IACUC approved procedures. Mice were euthanized by CO2 overdose and muscles harvested for analysis. One quadriceps muscle was snap frozen for proteomics and the other quadriceps muscle fixed in buffered formalin for paraffin embedding and trichrome staining. The tibialis anterior was placed in PBS for amplex red assay.
The IDO inhibitor, 1-methyl-D-tryptophan, blocks kynurenine production and reduces levels of ROS in muscle.

tibialis anterior = assay: Muscle ROS by Amplex red assay in aged mice treated with 1-methyl-D-tryptophan; format: in vivo
Description: as §2

[3] = aged mice, 1-methyl-D-tryptophan treatment
[4] = aged mouse muscle after 1-methyl-D-tryptophan treatment

Row | SMILES | ROS (human myoblasts; 100 μM kynurenine) | reactive oxygen species (human myoblasts; 10 μm kynurenine, FIG. 1B) | reactive oxygen species (H2O2 concentration/protein concentration) (C2C12 myoblasts; 1 μm and 10 μm kynurenine, FIG. 1A) | ROS increase (C2C12 myoblasts; kynurenine at both low and high concentrations (1, 10 μM), P<0.01) [fold] | quadriceps weight relative to body weight, reduction compared to controls (quadriceps femoris [1]) [%] | muscle fiber size compared to controls (quadriceps femoris [1]; P<0.01) | ROS increase based on 4HNE staining, compared to control (quadriceps femoris [2]) [%] | factors associated with muscle oxidative stress (proteomic analysis) (quadriceps muscle; [3]) | levels of myosin 4 (proteomic analysis) (quadriceps muscle; [3]) | factors associated with muscle degradation (ubiquitin ligases) and oxidative stress (TOPPGENE enrichment of downregulated proteins) (quadriceps muscle; [4]) | factors associated with muscle protein synthesis (TOPPGENE enrichment of upregulated proteins) (quadriceps muscle; [4]) | levels of ROS in muscle (Amplex red assay) (tibialis anterior; 1-methyl-D-tryptophan i.p. daily for 4 weeks) | kynurenine production (tibialis anterior; 1-methyl-D-tryptophan treatment)
1 | Nc1ccccc1C(=O)CC(N)C(=O)O (stereo not shown) [kynurenine] | increased | increases | increases | 2 | 10 | significantly lower | 20 | – | – | – | – | – | –
2 | Cn1cc(C[C@@H](N)C(=O)O)c2ccccc21 [1-methyl-D-tryptophan, reference compound] | – | – | – | – | – | – | – | reduced; also recorded: decreases | increases | decreased levels | increased levels | decrease | blocks

Reference: patent publication US20190224166A1, “Compositions and Methods for Treating Muscle Loss” (Augusta University Research Institute, Inc., priority 2018, published 2019)
